# From US20040072825A1, “2-(2-(4-((2r)-2-methyl-3-(10h-phenothiazin-10-yl)propyl)-1-piperazinyl)-ethoxy) ethanol, process for the preparation thereof, pharmaceutical compositions containing said compound and therapeutic uses thereof” (priority 2000, published 2004)
# How the values were obtained:
# [1] = biological target: T1, 5-HT3 receptor (Homo sapiens, UniProt P46098); test: Radioligand binding, 5-HT3 receptor; settings: mean of duplicate, read-out: percent inhibition of control specific binding
# T1 sequence (P46098 24-478): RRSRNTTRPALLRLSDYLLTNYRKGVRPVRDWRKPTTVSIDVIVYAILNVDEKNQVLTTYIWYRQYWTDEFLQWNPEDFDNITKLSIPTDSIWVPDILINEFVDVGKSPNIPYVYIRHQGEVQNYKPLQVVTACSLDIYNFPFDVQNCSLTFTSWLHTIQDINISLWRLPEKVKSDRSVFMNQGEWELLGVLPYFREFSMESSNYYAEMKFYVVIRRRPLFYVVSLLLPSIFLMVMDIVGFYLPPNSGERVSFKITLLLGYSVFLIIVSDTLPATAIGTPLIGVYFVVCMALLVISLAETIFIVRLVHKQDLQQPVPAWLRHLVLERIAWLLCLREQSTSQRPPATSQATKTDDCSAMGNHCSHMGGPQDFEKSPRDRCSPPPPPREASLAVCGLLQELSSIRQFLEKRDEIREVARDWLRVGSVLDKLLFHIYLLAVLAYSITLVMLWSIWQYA
# [2] = biological target: T2, D4.4 dopaminergic receptor (Homo sapiens, UniProt P21917); test: Radioligand binding, D4.4 receptor (CHO cell culture)
# T2 construct: expressed in transfected cells; host or cells: CHO
# T2 sequence (P21917 1-419): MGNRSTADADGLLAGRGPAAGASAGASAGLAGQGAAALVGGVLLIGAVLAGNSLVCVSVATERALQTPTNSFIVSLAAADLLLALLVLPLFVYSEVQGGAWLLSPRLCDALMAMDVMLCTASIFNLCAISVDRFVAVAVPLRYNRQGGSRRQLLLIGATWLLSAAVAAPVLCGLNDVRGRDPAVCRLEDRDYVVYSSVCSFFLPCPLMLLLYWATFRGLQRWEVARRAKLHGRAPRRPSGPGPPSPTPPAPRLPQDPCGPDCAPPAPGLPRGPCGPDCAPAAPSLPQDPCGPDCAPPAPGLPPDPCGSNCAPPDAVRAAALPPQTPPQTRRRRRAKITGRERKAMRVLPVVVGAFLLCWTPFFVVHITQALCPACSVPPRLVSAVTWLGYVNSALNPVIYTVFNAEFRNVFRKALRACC
# Procedure: (§1) The test substances, biological materials and experimental protocols used in the study are described in Moguilevsky N. et al. (1994) Eur. J. […] List S. J. (1981) Proc. Natl. Acad. Sci.78:2620-2624; MacKenzie R. G. et al. (1994) Eur. J. Pharmacol. 266:79-85; Van Tol et al., (1992) Nature, 358:149-152. […] Filtermat A, Walac), then washed with cold buffer using a filtration unit ‘Cell Harvester’ (Brandel, Packard or Tomtec). The bound radioactivity is measured using a scintillation liquid (Formula 989 or Microscint 0, Packard) or solid (Meltilex B/HS, Wallac), and a scintillation counter (LS 6000, Beckman; Topcount, Packard; Betaplate, Wallac). […] Each experiment was performed in duplicate (n=2). In parallel, a positive control (concentration of reference substance causing 50% inhibition of radioligand specific binding) is tested to validate the assay. For competition experiments, membranes are incubated in the buffer containing the radioligand and increasing concentrations of unlabeled test substances. Each binding assay is validated with a reference compound tested in parallel. […] where BO and BI represent the total binding in the absence and presence of the unlabelled drug (in dpm/assay) and NSB is the amount of non specific binding (in dpm/assay). Analysis of raw data and pIC50 calculation is performed by computerized non-linear curve fitting methods using a set of equations describing competitive interactions between labelled and unlabeled ligands which obey the law of mass action. IC50 represents the concentration of the test substance inhibiting 50% of the specific binding of the radioligand. It is determined in competitive binding experiments by measuring the binding of a single concentration of a radioactive ligand at equilibrium with various concentrations of the unlabeled test substance. pIC50=−log IC50
# [3] = biological target: human H1 histaminic receptor (Homo sapiens, UniProt P35367); test: Radioligand binding, human H1 receptor (CHO cell culture)
# Procedure: as §1
# [4] = biological target: D2 dopaminergic receptor (Rattus norvegicus, UniProt P61169); test: Radioligand binding, D2 receptor (rat striatum membranes)
# Procedure: as §1
# [5] = biological target: T3, human D3 dopaminergic receptor (Homo sapiens, UniProt P35462); test: Radioligand binding, human D3 receptor (CHO cell culture)
# T3 construct: expressed in transfected cells; host or cells: CHO
# Procedure: as §1
# [6] = test system: postoperative nausea and vomiting; settings: prophylactic administration, analgesia with morphine; cited from earlier work
# [7] = biological target: T4, 5-HT2 serotonergic receptor (Rattus norvegicus, UniProt P14842); test: Radioligand binding, 5-HT2 receptor (rat cerebral cortex)
# T4 construct: the rat cerebral cortex (5-HT2 receptor); from tissue; host or cells: rat cerebral cortex
# Procedure: as §1
# D2 dopaminergic receptor, sequence (P61169 1-415 isoform P61169-2): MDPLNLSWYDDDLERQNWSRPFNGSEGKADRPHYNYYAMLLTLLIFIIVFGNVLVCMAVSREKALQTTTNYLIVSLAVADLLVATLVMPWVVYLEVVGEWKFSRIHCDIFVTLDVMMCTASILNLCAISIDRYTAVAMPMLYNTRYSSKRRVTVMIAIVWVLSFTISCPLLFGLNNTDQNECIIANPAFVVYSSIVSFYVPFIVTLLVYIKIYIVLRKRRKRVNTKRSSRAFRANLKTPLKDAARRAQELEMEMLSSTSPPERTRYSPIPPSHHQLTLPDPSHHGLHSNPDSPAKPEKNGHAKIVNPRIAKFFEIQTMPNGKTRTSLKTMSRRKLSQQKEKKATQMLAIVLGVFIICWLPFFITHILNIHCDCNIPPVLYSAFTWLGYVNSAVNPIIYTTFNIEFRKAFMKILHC
# T4 sequence (P14842 whole entry): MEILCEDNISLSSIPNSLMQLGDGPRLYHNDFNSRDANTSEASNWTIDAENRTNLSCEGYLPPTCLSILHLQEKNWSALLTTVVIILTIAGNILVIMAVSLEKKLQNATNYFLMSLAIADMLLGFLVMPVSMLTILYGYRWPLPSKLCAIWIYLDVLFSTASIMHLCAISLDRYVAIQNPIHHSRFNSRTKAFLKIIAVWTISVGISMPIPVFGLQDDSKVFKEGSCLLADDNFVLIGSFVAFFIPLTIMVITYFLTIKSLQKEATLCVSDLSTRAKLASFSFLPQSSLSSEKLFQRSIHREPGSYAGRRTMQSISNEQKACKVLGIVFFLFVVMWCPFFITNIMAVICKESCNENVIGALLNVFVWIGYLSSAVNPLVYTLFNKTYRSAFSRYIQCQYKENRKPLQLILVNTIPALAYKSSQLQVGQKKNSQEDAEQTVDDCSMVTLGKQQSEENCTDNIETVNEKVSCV
# T3 sequence (P35462 whole entry): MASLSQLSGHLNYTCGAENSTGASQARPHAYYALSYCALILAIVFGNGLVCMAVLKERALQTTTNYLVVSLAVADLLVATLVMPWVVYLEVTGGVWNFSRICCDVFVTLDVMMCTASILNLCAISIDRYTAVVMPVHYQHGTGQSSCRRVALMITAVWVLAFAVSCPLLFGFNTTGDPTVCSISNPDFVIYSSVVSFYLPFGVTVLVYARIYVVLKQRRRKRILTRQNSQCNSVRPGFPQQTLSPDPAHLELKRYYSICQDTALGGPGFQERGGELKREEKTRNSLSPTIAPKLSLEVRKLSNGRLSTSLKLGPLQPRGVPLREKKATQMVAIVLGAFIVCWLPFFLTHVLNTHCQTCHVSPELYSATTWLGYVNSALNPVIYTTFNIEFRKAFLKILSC
# human H1 histaminic receptor, sequence (P35367 whole entry): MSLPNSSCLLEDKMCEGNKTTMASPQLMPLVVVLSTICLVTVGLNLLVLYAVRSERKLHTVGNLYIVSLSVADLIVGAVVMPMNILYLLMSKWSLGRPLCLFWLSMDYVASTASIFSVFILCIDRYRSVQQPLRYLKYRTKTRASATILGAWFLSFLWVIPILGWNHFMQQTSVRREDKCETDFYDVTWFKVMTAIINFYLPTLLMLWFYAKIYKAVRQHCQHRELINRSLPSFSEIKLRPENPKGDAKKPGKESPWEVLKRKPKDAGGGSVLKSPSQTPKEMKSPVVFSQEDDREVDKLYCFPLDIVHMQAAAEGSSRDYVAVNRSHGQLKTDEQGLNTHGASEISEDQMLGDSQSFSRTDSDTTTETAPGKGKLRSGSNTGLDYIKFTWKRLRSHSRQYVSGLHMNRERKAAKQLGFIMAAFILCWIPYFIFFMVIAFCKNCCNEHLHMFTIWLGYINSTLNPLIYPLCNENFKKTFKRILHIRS
compound,measurement,setting,value
"CC(CN1CCN(CCOCCO)CC1)CN1c2ccccc2Sc2ccccc21 (racemic) [Dixyrazine, 2-(2-(4-(2-methyl-3-(10H-phenothiazin-10-yl)propyl)-1-piperazinyl)ethoxy)ethanol, reference compound]",inhibition at 0.1 µM,"[1]; 5-HT3, 0.1 μM",< 10%
same,inhibition at 10 µM,"[1]; 5-HT3, 10 μM",26%
same,inhibition at 0.1 µM,"[2]; D4.4, 0.1 μM, mean of duplicate, read-out: percent inhibition of control specific binding",24%
same,percent inhibition of control specific binding,"[2]; D4.4, 10 μM, mean of duplicate, 10 µM",104%
same,inhibition at 10 µM,"[2]; D4.4, 10 μM, mean of duplicate, read-out: percent inhibition of control specific binding",> 90%
same,IC50,"[2]; D4.4, competitive binding, read-out: Affinity pIC50 (-log IC50) (converted)",398 nM
same,percent inhibition of control specific binding,"[3]; H1, 10 μM, mean of duplicate, 10 µM",100%
same,inhibition at 10 µM,"[3]; H1, 10 μM, mean of duplicate, read-out: percent inhibition of control specific binding",> 90%
same,IC50,"[3]; H1, competitive binding, read-out: Affinity pIC50 (-log IC50) (converted)",0.501 nM
same,percent inhibition of control specific binding,"[4]; D2, 10 μM, mean of duplicate, 10 µM",94%
same,inhibition at 10 µM,"[4]; D2, 10 μM, mean of duplicate, read-out: percent inhibition of control specific binding",> 90%
same,IC50,"[4]; D2, competitive binding, read-out: Affinity pIC50 (-log IC50) (converted)",5.01 nM
same,inhibition at 0.1 µM,"[5]; D3, 0.1 μM, mean of duplicate, read-out: percent inhibition of control specific binding",84%
same,percent inhibition of control specific binding,"[5]; D3, 10 μM, mean of duplicate, 10 µM",100%
same,inhibition at 10 µM,"[5]; D3, 10 μM, mean of duplicate, read-out: percent inhibition of control specific binding",> 90%
same,IC50,"[5]; D3, competitive binding, read-out: Affinity pIC50 (-log IC50) (converted)",50.1 nM
same,incidence and severity of vomiting (in words),[6],reduces the incidence and severity of vomiting
same,percent inhibition of control specific binding,"[7]; 5-HT2, 10 μM, mean of duplicate, 10 µM",102%
same,IC50,"[7]; 5-HT2, competitive binding, read-out: Affinity pIC50 (-log IC50) (converted)",6.31 nM
same,inhibition at 10 µM,"[7]; read-out: percent inhibition of control specific binding, 5-HT2, 10 μM, mean of duplicate",> 90%
